Key:
Cyclooxygenase-1 (COX-1) = molecular target: T1, Cyclooxygenase-1 (COX-1) (Homo sapiens, UniProt P23219); assay: Inhibition of cyclooxygenase-1 (COX-1) activity in human platelets (thromboxane B2 ELISA); type: cell-based; details: 50 μM arachidonic acid, mean of three independent experiments, read-out: COX-1 (μM), results expressed as IC50 values
T1 construct: Platelets were isolated from peripheral human blood obtained from healthy donors; endogenous in cells; host or cells: human platelets from peripheral blood of healthy donors
T1 sequence (P23219 24-599): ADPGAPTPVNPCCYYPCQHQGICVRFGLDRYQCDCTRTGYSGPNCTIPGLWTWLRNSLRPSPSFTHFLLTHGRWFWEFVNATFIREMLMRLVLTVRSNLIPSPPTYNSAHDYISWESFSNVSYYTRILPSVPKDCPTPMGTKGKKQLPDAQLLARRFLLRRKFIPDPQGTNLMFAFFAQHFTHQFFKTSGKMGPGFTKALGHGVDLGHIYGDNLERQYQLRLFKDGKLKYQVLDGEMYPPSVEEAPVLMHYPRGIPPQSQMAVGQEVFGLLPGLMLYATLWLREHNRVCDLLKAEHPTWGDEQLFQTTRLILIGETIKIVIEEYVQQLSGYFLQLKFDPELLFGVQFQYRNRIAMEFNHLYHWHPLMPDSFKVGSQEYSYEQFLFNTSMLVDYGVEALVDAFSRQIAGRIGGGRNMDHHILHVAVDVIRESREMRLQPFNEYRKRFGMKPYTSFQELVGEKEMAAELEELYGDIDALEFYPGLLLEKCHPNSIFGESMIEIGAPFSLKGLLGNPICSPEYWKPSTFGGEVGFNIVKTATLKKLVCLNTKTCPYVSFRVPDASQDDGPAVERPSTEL
Experimental: (§1) For the whole-cell COX-1 and COX-2 assays, stock solutions (10^−3M) of the drugs were dissolved in 50% dimethylsulphoxide, and further dilutions were done with medium.
Inhibition of Cyclooxygenase-1 (COX-1) Activity in Human Platelets
The blood was anticoagulated with 2 mg/ml sodium EDTA and centrifuged at 180 g for 10 min. at room temperature to obtain platelet-rich plasma. The platelet-rich plasma was centrifuged at 2000 g for 20 min. at 4° C. to obtain a platelet pellet. Cells were washed twice with PBS without […] and resuspended to 5×10^7 cells with Hank's balanced salt solution (HBSS). Platelets (10^7) were preincubated with the drugs for 15 min. at 37° C. and incubations were continued for a further 15 min. in the presence of 50 μM arachidonic acid. The production of tromboxane B2 in response to arachidonic acid was measured in the supernatants using a solid-phase immunoassay (ELISA). The results are expressed as the mean of the IC50 values obtained from three independent experiments.
(§2) For the whole-cell COX-1 and COX-2 assays stock solutions (10^−3 M) of the drugs wer dissolved in 50% dimethylsulphoxide, and further dilutions were done with medium.

Cyclooxygenase-2 (COX-2) = molecular target: T2, Cyclooxygenase-2 (COX-2) (Homo sapiens, UniProt P35354); assay: Inhibition of cyclooxygenase-2 (COX-2) activity in HUV-EC-C cell line (prostaglandin E2 ELISA); type: cell-based; details: for IC50: PMA/TPA-induced HUV-EC-C cells, 50 μM arachidonic acid, mean of three independent experiments, read-out: COX-2 (μM), results expressed as IC50 values; for Ratio COX-1:COX-2: ratio of IC50 COX-1 (platelets) to IC50 COX-2 (HUV-EC-C)
T2 construct: Quiescent HUV-EC-C cells were treated with 50 nM TPA for 6 h at 37° C. to induce the COX-2 isoenzyme; endogenous in cells; host or cells: HUV-EC-C human endothelial cell line, passage 19-27, induced with 50 nM TPA/PMA
T2 sequence (P35354 18-604): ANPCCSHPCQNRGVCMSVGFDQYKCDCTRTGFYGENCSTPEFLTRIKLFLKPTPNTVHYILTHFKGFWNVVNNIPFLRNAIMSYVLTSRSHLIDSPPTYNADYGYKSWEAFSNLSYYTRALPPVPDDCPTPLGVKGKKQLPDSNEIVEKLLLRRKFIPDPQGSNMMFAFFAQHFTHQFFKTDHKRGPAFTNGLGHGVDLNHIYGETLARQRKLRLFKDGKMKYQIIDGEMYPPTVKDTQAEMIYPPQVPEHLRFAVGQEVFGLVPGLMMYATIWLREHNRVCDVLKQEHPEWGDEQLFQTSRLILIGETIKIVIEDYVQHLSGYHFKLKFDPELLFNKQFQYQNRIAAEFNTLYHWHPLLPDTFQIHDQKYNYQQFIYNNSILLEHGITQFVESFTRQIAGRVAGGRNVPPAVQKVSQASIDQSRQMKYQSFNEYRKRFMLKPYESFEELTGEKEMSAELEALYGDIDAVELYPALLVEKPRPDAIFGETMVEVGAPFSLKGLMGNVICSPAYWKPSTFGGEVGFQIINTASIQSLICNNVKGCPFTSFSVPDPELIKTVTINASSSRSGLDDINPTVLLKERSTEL
Experimental: as §1
Inhibition of Cyclooxygenase-2 (COX-2) Activity in HUV-EC-C Cell Line
HUV-EC-C cells were grown on Ham's F12K medium containing 10% fetal bovine serum, 100 μg/ml heparin and 50 μg/ml Endothelial Cell Growth Supplement (ECGS). Experiments were performed with HUV-EC-C passage 19-27. Cells (2×10^4) were seeded onto 96-well plates and made quiescent by removing the growth factor for 48 h before the initiation of the experiments. Quiescent HUV-EC-C cells were treated with 50 nM TPA for 6 h at 37° C. to induce the COX-2 isoenzyme. The cultured medium was then changed and cells were incubated with drugs for 30 min. at 37° C. Arachidonic acid (50 μM) was then added, and the cells were incubated for a further 30 min. The production of prostaglandine E2 in response to arachidonic acid was measured in the supernatants using a solid-phase immunoassay (ELISA). The results are expressed as the mean of the IC50 values obtained from three independent experiments.
as §2

[1] = test system: adjuvant arthritis (Mycobacterium tuberculosis in paraffin oil, hind paw); assay: Anti-inflammatory activity (adjuvant arthritis), hind paw volume; type: in vivo, Male Wistar rats; details: paw volume on day 21
Experimental: Anti-Inflammatory Activity (Adjuvant Arthritis)
Male Wistar rats weighing 175-200 g with free access to food and water were used. On day 0, the animals received an intraplantar injection of a suspension of Mycobacterium tuberculosis in paraffin oil (0.5 mg/rat) on the left hind paw. A group of 8 nonarthritic control rats were injected with paraffin oil alone. On days 11 and 14 after induction of arthritis, the volume of the hind paw of each rat was measured using a water plehysmograph. Animals whose paw volumes increased during that time were selected. Rats were distributed into groups of 8 having equal mean paw volumes and an approximately equal standard deviation.
Test compounds were administered p.o. once daily for 7 days (days 14-20). Nonarthritic and arthritic control rats received vehicle alone for 7 days. The hind paw volumes were measured 20 h after the last dose (on day 21). The body weight was determined every second day.
The results are expressed as the percentage of inhibition of inflammation (paw volume) for each treatment group, considering both the arthritic and nonarthritic vehicle controls. The ANOVA test was used for statistical studies.
(§3) For the in vivo assays all drugs were administered in vehicle (0.1% Tween 80+0.5% methylcellulose in distilled water) in a volume of 5 ml/kg.

glandular stomach = assay: Ulcerogenic activity (gastric lesion index); type: in vivo, Male Wistar rat; details: oral route, fasted rats, sacrificed 6 hours after dosage
Experimental: Animals: Male Wistar (Interfauna, U.K., Ltd.) weighing about 120-150 g were used. They were maintained on a 12:12 hour light-dark cycle (lights on at 7:00 a.m.) at room temperature (22±1° C.). The animals were fasted for 18 h prior to the experiment with free access to drinking water.
Procedure: Experiments were performed from 9 to 17 h. The compounds were administered by-the oral route and the animals were sacrificed 6 hours after drugs dosage. The stomach of each rat was removed, opened and gently washed. The macroscopic severity of the erosions was assessed using a parametric scale (Cosen and Mazure), evaluating the number and size of the ulcers in the glandular stomach. Thus, each stomach was classified with an index lesion and compared with the gastrolesivity induced by ketorolac 100 mg/kg p.o., used as a positive standard. The treatments were randomized in each experiment.
as §3

[2] = 1 mg/kg p.o. once daily for 7 days (days 14-20)

Structure (SMILES)	IC50 (Cyclooxygenase-1 (COX-1)) [µM]	IC50 (Cyclooxygenase-2 (COX-2)) [µM]	Ratio COX-1:COX-2 (Cyclooxygenase-2 (COX-2))	melting point [°C]	% Inhibition (dose, mg/kg) [1, 2]	UD50 (glandular stomach) [mg/kg]	% Inhibition (dose, mg/kg) ([1]; 3 mg/kg p.o. once daily for 7 days (days 14-20))
CS(=O)(=O)c1ccc(-c2coc(=O)n2-c2ccc(Br)cc2)cc1 [Compound 9, 3-(4-bromophenyl)-4-(4-methylsulfonylphenyl)-2-(3H)-oxazolone]	> 100	0.11	>909	217 to 219	–	–	–
NS(=O)(=O)c1ccc(-c2coc(=O)n2-c2ccc(F)cc2F)cc1 [Compound 27, 3-(2,4-difluorophenyl)-4-(4-aminosulphonylphenyl)-2-(3H)-oxazolone]	8.9	0.1	89	–	64 (1) %	>100	–
NS(=O)(=O)c1ccc(-c2coc(=O)n2-c2ccc(Cl)c(Cl)c2)cc1 [Compound 20, 3-(3,4-dichlorophenyl)-4-(4-aminosulphonylphenyl)-2-(3H)-oxazolone]	3.5	0.06	58.3	–	67 (1) %	>100	–
COc1ccc2c(c1)c(CC(=O)O)c(C)n2C(=O)c1ccc(Cl)cc1 [Indomethacin, 1-(4-chlorobenzoyl)-5-methoxy-2-methylindole-3-acetic acid, reference compound]	–	–	–	–	64 (1) %	17	–
NS(=O)(=O)c1ccc(-c2coc(=O)n2-c2ccc(F)cc2)cc1 [Compound 18, 3-(4-fluorophenyl)-4-(4-aminosulfonylphenyl)-2-(3H)-oxazolone]	1.5	0.53	2.8	–	63 (1) %	–	–
CS(=O)(=O)c1ccc(-c2coc(=O)n2-c2ccc(F)cc2)cc1 [Compound 6, 3-(4-fluorophenyl)-4-(4-methylsulfonylphenyl)-2-(3H)-oxazolone]	127	3.2	39.6	–	–	>100	52 (3) %
NS(=O)(=O)c1ccc(-c2coc(=O)n2-c2ccccc2F)cc1 [Compound 26, 3-(2-fluorophenyl)-4-(4-aminosulphonylphenyl)-2-(3H)-oxazolone]	22.6	0.0096	2354	–	65 (1) %	>100	–
